Measured values as given in patent US8629173B2, “Solid forms comprising (+)-2-[1-(3-ethoxy-4-methoxyphenyl)-2-methylsulfonylethyl]-4-acetylaminoisoindoline-1,3-dione, compositions thereof, and uses thereof” (Celgene Corporation, priority 2002, dated 2014).
Entries after “also recorded” stand apart in the source; their conditions may differ.

Tests used:
bovine PDE1 = experiment: PDE1 enzyme assay; type: biochemical
[1] = target: PDE5 from human platelets (Homo sapiens, UniProt O76074); experiment: PDE5 enzyme assay; type: biochemical; conditions: from Table 1 data
[2] = target: PDE3 from human platelets (Homo sapiens, UniProt Q14432); experiment: PDE3 enzyme assay; type: biochemical; conditions: from Table 1 data
PDE4 (from U937 cells) = experiment: PDE4 (U937 cell-derived) enzyme assay; type: biochemical, human; conditions: 1 μM cAMP
human PDE2 = human PDE2 (Homo sapiens, UniProt O00408); experiment: PDE2 enzyme assay; type: biochemical; conditions: from Table 1 data
[3] = Interconversion studies of solid forms; type: physicochemical; conditions: EQ in acetone:ethanol (1:1) at 25° C., at least 2 days
Description: Interconversion Studies. Interconversion experiments were performed by making slurries of a solid form in a saturated solvent. The slurries were agitated for at least 2 days at about 25° C. The saturated solution was removed by filtration and the solid was dried in the air.

[4] = Stability studies of solid forms; type: physicochemical; conditions: for Stability: Analysis by XRPD (solid form after stress) / Stability: Appearance: 40° C./75% RH, 4 weeks
Description: Stability Studies. The stabilities of Forms A, B, C and D were studied by exposing the solid samples to the stress condition of 40° C./75% RH for four weeks. Moreover, the stabilities of Forms A, B, C and D in different solvents were studied by equilibration in different solvents at 40° C. for four weeks. The slurries then were filtered and dried in the air. Solid samples obtained from the stability experiments were analyzed by XRPD and DSC.

[5] = Hygroscopicity (DVS moisture sorption/desorption) studies; type: physicochemical; conditions: for hygroscopicity / XRPD pattern / solid form after full adsorption/desorption cycle: DVS; for hygroscopicity: 0-95% RH; for XRPD pattern / solid form after full adsorption/desorption cycle: 0-95-0% RH; for moisture sorption mass change of the starting mass: RH increased from about 0% to about 95% RH, about 25° C.
Description: Hygroscopicity studies. The hygroscopicity of various solid forms was studied using a Surface Measurement Systems DVS instrument. Typically a sample size of between about 10-50 mg was loaded into the DVS instrument sample pan and the sample was analyzed on a DVS automated sorption analyzer at about 25° C. The relative humidity was increased in increments of about 10% from about 0% to about 95% RH. The relative humidity was then decreased in a similar manner to accomplish a full adsorption/desorption cycle. The mass was recorded at periodic intervals throughout the experiment.

[6] = Compression studies of solid forms; conditions: 2000 psi for at least one minute
[7] = EQ in ethanol at 40° C. for 4 weeks
[8] = EQ in heptane at 40° C. for 4 weeks
[9] = EQ in toluene at 40° C. for 4 weeks
[10] = EQ in water at 40° C. for 4 weeks

Sequence of PDE3 from human platelets (Q14432 whole entry): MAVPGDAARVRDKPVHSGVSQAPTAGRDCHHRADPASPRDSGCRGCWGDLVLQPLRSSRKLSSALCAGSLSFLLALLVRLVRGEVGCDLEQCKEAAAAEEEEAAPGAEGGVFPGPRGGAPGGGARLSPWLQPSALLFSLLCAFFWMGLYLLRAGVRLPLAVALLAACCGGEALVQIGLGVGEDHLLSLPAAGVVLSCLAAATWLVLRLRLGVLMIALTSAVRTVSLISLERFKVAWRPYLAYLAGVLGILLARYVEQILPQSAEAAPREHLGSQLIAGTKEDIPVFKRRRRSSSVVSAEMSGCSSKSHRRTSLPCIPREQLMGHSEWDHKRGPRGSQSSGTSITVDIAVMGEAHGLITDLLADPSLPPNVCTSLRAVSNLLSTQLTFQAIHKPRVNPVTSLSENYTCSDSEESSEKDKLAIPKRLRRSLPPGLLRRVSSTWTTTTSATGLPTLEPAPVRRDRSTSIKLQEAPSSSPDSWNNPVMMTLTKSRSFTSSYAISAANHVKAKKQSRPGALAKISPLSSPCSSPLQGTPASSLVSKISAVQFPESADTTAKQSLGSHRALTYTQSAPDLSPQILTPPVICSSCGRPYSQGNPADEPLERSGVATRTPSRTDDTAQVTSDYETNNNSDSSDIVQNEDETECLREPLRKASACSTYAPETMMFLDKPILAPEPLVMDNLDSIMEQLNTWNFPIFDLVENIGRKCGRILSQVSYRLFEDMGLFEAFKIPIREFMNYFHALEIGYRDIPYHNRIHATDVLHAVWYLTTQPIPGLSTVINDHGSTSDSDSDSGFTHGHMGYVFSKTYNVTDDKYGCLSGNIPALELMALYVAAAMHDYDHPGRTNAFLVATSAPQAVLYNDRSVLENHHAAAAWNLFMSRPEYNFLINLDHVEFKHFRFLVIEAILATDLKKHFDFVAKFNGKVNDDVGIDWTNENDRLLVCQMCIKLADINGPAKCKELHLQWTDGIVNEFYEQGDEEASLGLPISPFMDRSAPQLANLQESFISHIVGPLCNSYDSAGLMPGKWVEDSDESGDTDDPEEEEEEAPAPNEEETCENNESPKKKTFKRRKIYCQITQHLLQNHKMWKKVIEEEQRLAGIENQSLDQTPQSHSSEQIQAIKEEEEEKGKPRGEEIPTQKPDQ
Sequence of human PDE2 (O00408 whole entry): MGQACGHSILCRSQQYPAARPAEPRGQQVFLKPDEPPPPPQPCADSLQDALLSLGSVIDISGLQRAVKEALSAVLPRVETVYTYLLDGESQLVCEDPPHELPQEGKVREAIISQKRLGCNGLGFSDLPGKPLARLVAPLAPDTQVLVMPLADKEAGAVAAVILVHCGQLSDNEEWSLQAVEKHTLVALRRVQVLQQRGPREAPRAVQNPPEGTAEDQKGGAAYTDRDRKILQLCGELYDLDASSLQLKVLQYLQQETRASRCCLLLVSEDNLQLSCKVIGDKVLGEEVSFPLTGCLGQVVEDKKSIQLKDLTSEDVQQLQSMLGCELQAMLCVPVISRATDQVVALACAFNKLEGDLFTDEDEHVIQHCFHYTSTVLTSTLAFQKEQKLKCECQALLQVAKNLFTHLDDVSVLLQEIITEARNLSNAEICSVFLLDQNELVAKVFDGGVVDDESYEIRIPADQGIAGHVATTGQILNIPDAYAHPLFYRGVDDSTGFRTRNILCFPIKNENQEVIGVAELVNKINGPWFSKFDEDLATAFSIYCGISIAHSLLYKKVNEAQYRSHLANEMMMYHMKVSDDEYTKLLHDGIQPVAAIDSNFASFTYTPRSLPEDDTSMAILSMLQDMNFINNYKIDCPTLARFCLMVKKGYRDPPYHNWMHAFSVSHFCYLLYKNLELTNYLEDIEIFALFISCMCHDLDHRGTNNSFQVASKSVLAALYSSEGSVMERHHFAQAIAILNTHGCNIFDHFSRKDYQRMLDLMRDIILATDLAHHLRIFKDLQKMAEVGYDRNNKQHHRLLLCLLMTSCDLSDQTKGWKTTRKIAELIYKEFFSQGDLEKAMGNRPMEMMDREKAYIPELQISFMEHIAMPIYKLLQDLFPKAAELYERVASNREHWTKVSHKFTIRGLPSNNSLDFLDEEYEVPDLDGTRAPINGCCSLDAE

With CCOc1cc(C(CS(C)(=O)=O)N2C(=O)c3cccc(NC(C)=O)c3C2=O)ccc1OC (racemic) [Racemic Compound, 2-[1-(3-Ethoxy-4-methoxyphenyl)-2-methylsulfonylethyl]-4-acetylaminoisoindoline-1,3-dione] the “PDE1 (% inhib at 10 μM)” value (bovine PDE1; 10 μM) was 9%, the “PDE Specificity Ratio PDE4/PDE1” value (bovine PDE1; from Table 1 data) was over 2700 fold and the “PDE Specificity Ratio PDE4/PDE5” value [1] was over 12000 fold. For the same compound, the “PDE Specificity Ratio PDE4/PDE3” value [2] was over 670 fold, the IC50 (PDE4 (from U937 cells)) was 81.8 nM and the “PDE Specificity Ratio PDE4/PDE2” value (human PDE2) was over 800 fold.

For CCOc1cc(C(CS(C)(=O)=O)N2C(=O)c3cccc(NC(C)=O)c3C2=O)ccc1OC (single isomer, unassigned; (+)) [Form A, (+)-2-[1-(3-ethoxy-4-methoxyphenyl)-2-methylsulfonylethyl]-4-acetylaminoisoindoline-1,3-dione], the “Interconversion: Analysis by XRPD (solid form after equilibration)” value (“Interconversion: Analysis by XRPD” below) [3] was “Form B”, the “Stability: Analysis by XRPD (solid form after stress)” value (“Stability … (solid form after stress)” for short) [4] was “stable; also recorded: Form A” and the “Stability: Appearance” value [4] was “White solid”. For the same compound, the “Stability: Analysis by XRPD (solid form after equilibration)” value [4, 7] was “stable; also recorded: Form F”, the “Stability: Analysis by XRPD (solid form after equilibration)” value [4, 8] was “stable; also recorded: Form A” and the “Stability: Analysis by XRPD (solid form after equilibration)” value [4, 9] was “converts to Form C”. For the same compound, the “Stability: Analysis by XRPD (solid form after equilibration)” value [4, 10] was “stable; also recorded: Form A”, the hygroscopicity [5] was “substantially nonhygroscopic” and the “XRPD pattern / solid form after full adsorption/desorption cycle” value [5] was “substantially unchanged; also recorded: none of the forms analyzed underwent substantial solid-state transformation”. The “moisture sorption mass change of the starting mass” value (“moisture sorption mass change” for short) [5] was “about 0.4%” and the “physical stability upon compression (XRPD)” value [6] was “substantially physically stable”.

With CCOc1cc(C(CS(C)(=O)=O)N2C(=O)c3cccc(NC(C)=O)c3C2=O)ccc1OC (single isomer, unassigned; (+)) [Form B, (+)-2-[1-(3-ethoxy-4-methoxyphenyl)-2-methylsulfonylethyl]-4-acetylaminoisoindoline-1,3-dione] the “Stability … (solid form after stress)” value [4] was “stable; also recorded: Form B”, the “Stability: Appearance” value [4] was “White solid” and the “Stability: Analysis by XRPD (solid form after equilibration)” value [4, 7] was “stable; also recorded: Form B”. The “Stability: Analysis by XRPD (solid form after equilibration)” value [4, 8] was “stable; also recorded: Form B”, the “Stability: Analysis by XRPD (solid form after equilibration)” value [4, 10] was “stable; also recorded: Form B” and the hygroscopicity [5] was “substantially nonhygroscopic”. The “XRPD pattern / solid form after full adsorption/desorption cycle” value [5] was “substantially unchanged; also recorded: none of the forms analyzed underwent substantial solid-state transformation”, the “moisture sorption mass change” value [5] was “about 0.6%” and the “physical stability upon compression (XRPD)” value [6] was “substantially physically stable”.

In the case of CCOc1cc(C(CS(C)(=O)=O)N2C(=O)c3cccc(NC(C)=O)c3C2=O)ccc1OC (single isomer, unassigned; (+)) [Form C, (+)-2-[1-(3-ethoxy-4-methoxyphenyl)-2-methylsulfonylethyl]-4-acetylaminoisoindoline-1,3-dione], the “Interconversion: Analysis by XRPD” value [3] is reported as “Form C”, the “Stability … (solid form after stress)” value [4] is reported as “stable; also recorded: Form C” and the “Stability: Appearance” value [4] is reported as “Yellow solid”. For the same compound, the “Stability: Analysis by XRPD (solid form after equilibration)” value [4, 7] was “stable; also recorded: Form C”, the “Stability: Analysis by XRPD (solid form after equilibration)” value [4, 8] was “stable; also recorded: Form C” and the “Stability: Analysis by XRPD (solid form after equilibration)” value [4, 9] was “stable; also recorded: Form C”. The “Stability: Analysis by XRPD (solid form after equilibration)” value [4, 10] was “stable; also recorded: Form C”, the hygroscopicity [5] was “substantially nonhygroscopic” and the “XRPD pattern / solid form after full adsorption/desorption cycle” value [5] was “substantially unchanged; also recorded: none of the forms analyzed underwent substantial solid-state transformation”. The “moisture sorption mass change” value [5] was “about 0.5%” and the “physical stability upon compression (XRPD)” value [6] was “substantially physically stable”.

With CCOc1cc(C(CS(C)(=O)=O)N2C(=O)c3cccc(NC(C)=O)c3C2=O)ccc1OC (single isomer, unassigned; (+)) [Form D, (+)-2-[1-(3-ethoxy-4-methoxyphenyl)-2-methylsulfonylethyl]-4-acetylaminoisoindoline-1,3-dione] the “Interconversion: Analysis by XRPD” value [3] was “Form B”, the “Stability … (solid form after stress)” value [4] was “stable; also recorded: Form D” and the “Stability: Appearance” value [4] was “White solid”. For the same compound, the “Stability: Analysis by XRPD (solid form after equilibration)” value [4, 7] was “converts to Form B”, the “Stability: Analysis by XRPD (solid form after equilibration)” value [4, 8] was “converts to Form B” and the “Stability: Analysis by XRPD (solid form after equilibration)” value [4, 9] was “converts to Form C”. For the same compound, the “Stability: Analysis by XRPD (solid form after equilibration)” value [4, 10] was “converts to Form B”, the hygroscopicity [5] was “slightly hygroscopic” and the “XRPD pattern / solid form after full adsorption/desorption cycle” value [5] was “substantially unchanged; also recorded: none of the forms analyzed underwent substantial solid-state transformation”. For the same compound, the “moisture sorption mass change” value [5] was “about 1.5%” and the “physical stability upon compression (XRPD)” value [6] was “substantially physically stable”.

With CCOc1cc(C(CS(C)(=O)=O)N2C(=O)c3cccc(NC(C)=O)c3C2=O)ccc1OC (single isomer, unassigned; (+)) [Form E, (+)-2-[1-(3-ethoxy-4-methoxyphenyl)-2-methylsulfonylethyl]-4-acetylaminoisoindoline-1,3-dione] the “Interconversion: Analysis by XRPD” value [3] was “Form B”, the hygroscopicity [5] was “hygroscopic” and the “XRPD pattern / solid form after full adsorption/desorption cycle” value [5] was “substantially unchanged; also recorded: none of the forms analyzed underwent substantial solid-state transformation”. For the same compound, the “moisture sorption mass change” value [5] was “about 5.1%”.

In the case of CCOc1cc(C(CS(C)(=O)=O)N2C(=O)c3cccc(NC(C)=O)c3C2=O)ccc1OC (single isomer, unassigned; (+)) [Form F, (+)-2-[1-(3-ethoxy-4-methoxyphenyl)-2-methylsulfonylethyl]-4-acetylaminoisoindoline-1,3-dione], the “Interconversion: Analysis by XRPD” value [3] is reported as “stable; also recorded: Form F”, the hygroscopicity [5] is reported as “substantially nonhygroscopic” and the “XRPD pattern / solid form after full adsorption/desorption cycle” value [5] is reported as “substantially unchanged; also recorded: none of the forms analyzed underwent substantial solid-state transformation”. The “moisture sorption mass change” value [5] was “about 0.2%”.

For CCOc1cc(C(CS(C)(=O)=O)N2C(=O)c3cccc(NC(C)=O)c3C2=O)ccc1OC (single isomer, unassigned; (+)) [Form G, (+)-2-[1-(3-ethoxy-4-methoxyphenyl)-2-methylsulfonylethyl]-4-acetylaminoisoindoline-1,3-dione], the “Interconversion: Analysis by XRPD” value [3] was “converts to Form B”, the hygroscopicity [5] was “substantially nonhygroscopic” and the “XRPD pattern / solid form after full adsorption/desorption cycle” value [5] was “substantially unchanged; also recorded: none of the forms analyzed underwent substantial solid-state transformation”. The “moisture sorption mass change” value [5] was “about 0.4%”.
